Source: paper PMC4447944 (The Journal of Biological Chemistry, 2015)

Columns and labels:
hABL1(pT315I) = molecular target: T1, hABL1(pT315I) (Homo sapiens, UniProt P00519, T315I); test: KINOMEscan; type: binding
T1 construct: purchased DiscoverX (KINOMEscan platform)

hCSNK2A1 = molecular target: T2, hCSNK2A1 (Homo sapiens, UniProt P68400); test: KINOMEscan; type: binding
T2 construct: purchased DiscoverX (KINOMEscan platform)

CYP2C9 = molecular target: T3, CYP2C9 (Homo sapiens, UniProt P11712); test: Cytochrome p450 inhibition (Eurofins-CEREP); type: in vitro ADME
T3 construct: Eurofins-CEREP
T3 sequence (P11712 whole entry, species assumed): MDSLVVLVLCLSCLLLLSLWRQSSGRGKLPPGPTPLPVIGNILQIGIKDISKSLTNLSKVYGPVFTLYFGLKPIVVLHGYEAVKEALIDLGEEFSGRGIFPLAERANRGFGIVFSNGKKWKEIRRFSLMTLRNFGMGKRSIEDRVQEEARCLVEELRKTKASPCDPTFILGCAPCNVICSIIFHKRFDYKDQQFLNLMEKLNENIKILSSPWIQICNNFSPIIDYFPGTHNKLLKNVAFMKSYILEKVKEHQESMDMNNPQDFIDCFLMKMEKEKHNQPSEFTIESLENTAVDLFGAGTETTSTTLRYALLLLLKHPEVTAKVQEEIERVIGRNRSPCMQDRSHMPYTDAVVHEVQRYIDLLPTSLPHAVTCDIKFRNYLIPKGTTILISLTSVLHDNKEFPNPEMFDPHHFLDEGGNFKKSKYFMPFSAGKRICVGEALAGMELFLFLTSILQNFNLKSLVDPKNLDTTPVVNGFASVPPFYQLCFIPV

hIKK-beta = molecular target: T4, hIKK-beta (Homo sapiens, UniProt O14920); test: KINOMEscan; type: binding
T4 construct: purchased DiscoverX (KINOMEscan panel)

hSNRK = molecular target: T5, hSNRK (Homo sapiens, UniProt Q9NRH2); test: KINOMEscan; type: binding
T5 construct: purchased DiscoverX (KINOMEscan platform)

hERBB2 = molecular target: T6, hERBB2 (Homo sapiens, UniProt P04626); test: KINOMEscan; type: binding
T6 construct: purchased DiscoverX

hABL1(F317I) = molecular target: T7, hABL1(F317I) (Homo sapiens, UniProt P00519, F317I); test: KINOMEscan; type: binding
T7 construct: purchased DiscoverX (KINOMEscan platform)

hRIPK5 = molecular target: T8, hRIPK5 (Homo sapiens, UniProt Q6XUX3); test: KINOMEscan; type: binding
T8 construct: purchased DiscoverX (KINOMEscan platform)

hHASPIN = molecular target: T9, hHASPIN (Homo sapiens, UniProt Q8TF76); test: KINOMEscan; type: binding
T9 construct: purchased DiscoverX
T9 sequence (Q8TF76 whole entry): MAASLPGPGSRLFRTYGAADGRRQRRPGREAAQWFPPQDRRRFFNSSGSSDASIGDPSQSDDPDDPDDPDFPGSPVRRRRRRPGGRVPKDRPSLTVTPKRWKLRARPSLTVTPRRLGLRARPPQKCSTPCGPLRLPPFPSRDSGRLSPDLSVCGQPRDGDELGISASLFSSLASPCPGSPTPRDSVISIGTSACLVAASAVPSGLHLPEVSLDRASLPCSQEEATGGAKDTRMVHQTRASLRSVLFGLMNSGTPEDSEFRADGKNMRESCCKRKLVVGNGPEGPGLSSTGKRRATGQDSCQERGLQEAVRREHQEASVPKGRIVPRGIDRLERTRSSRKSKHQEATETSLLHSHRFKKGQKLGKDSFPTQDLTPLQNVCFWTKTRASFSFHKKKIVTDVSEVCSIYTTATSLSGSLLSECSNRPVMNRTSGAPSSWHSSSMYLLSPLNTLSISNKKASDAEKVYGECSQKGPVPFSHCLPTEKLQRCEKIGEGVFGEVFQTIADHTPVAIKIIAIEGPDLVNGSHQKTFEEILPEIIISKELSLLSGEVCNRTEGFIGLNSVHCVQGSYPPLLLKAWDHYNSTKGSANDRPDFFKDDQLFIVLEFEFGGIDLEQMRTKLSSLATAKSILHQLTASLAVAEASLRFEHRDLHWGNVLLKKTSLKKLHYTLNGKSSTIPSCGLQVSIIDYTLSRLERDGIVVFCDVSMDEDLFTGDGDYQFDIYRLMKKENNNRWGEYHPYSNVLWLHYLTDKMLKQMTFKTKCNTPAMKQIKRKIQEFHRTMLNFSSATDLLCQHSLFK

hPRP4 = molecular target: T10, hPRP4 (Homo sapiens, UniProt Q13523); test: KINOMEscan; type: binding
T10 construct: purchased DiscoverX

hRIPK1 = molecular target: T11, hRIPK1 (Homo sapiens, UniProt Q13546); test: KINOMEscan; type: binding
T11 construct: purchased DiscoverX (KINOMEscan platform)

hIGF1R = molecular target: T12, hIGF1R (Homo sapiens, UniProt P08069); test: KINOMEscan; type: binding
T12 construct: purchased DiscoverX (KINOMEscan panel)

hEPHA6 = molecular target: T13, hEPHA6 (Homo sapiens, UniProt Q9UF33); test: KINOMEscan; type: binding
T13 construct: purchased DiscoverX

hAURKB = molecular target: T14, hAURKB (Homo sapiens, UniProt Q96GD4); test: KINOMEscan; type: binding
T14 construct: purchased DiscoverX

hLIMK2 = molecular target: T15, hLIMK2 (Homo sapiens, UniProt P53671); test: KINOMEscan; type: binding
T15 construct: purchased DiscoverX (KINOMEscan platform)

hMARK1 = molecular target: T16, hMARK1 (Homo sapiens, UniProt Q9P0L2); test: KINOMEscan; type: binding
T16 construct: purchased DiscoverX
T16 sequence (Q9P0L2 whole entry): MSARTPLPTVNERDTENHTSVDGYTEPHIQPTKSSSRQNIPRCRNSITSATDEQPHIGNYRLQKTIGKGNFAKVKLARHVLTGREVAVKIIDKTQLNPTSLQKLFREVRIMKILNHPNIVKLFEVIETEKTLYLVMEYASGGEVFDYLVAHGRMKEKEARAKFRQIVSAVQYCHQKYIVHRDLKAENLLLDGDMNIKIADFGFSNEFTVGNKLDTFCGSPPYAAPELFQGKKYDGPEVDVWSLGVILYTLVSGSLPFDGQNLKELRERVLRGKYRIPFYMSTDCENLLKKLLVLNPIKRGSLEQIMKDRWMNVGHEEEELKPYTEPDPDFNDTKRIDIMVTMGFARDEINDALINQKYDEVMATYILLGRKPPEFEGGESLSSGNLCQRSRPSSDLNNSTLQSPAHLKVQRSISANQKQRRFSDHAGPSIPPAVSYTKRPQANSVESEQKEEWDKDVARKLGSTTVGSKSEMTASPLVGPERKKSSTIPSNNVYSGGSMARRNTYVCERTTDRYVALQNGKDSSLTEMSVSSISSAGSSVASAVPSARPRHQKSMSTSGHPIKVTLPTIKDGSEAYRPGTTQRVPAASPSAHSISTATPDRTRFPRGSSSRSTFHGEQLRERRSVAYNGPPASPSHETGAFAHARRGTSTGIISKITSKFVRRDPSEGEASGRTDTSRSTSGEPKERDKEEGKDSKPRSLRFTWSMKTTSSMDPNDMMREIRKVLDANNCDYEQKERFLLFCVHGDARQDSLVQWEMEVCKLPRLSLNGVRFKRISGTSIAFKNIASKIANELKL

hPIP5K1A = molecular target: T17, hPIP5K1A (Homo sapiens, UniProt Q99755); test: KINOMEscan; type: binding
T17 construct: purchased DiscoverX

hRARγ = molecular target: T18, hRARγ (Homo sapiens, UniProt P13631); test: Nuclear hormone receptor assay (Eurofins-CEREP); details: read-out: Relative IC50
T18 construct: Eurofins-CEREP

hCSNK1A1 = molecular target: T19, hCSNK1A1 (Homo sapiens, UniProt P48729); test: KINOMEscan; type: binding
T19 construct: purchased DiscoverX (KINOMEscan platform)

hABL1(pF317I) = molecular target: T20, hABL1(pF317I) (Homo sapiens, UniProt P00519, F317I); test: KINOMEscan; type: binding
T20 construct: purchased DiscoverX (KINOMEscan platform)

hIRAK4 = molecular target: T21, hIRAK4 (Homo sapiens, UniProt Q9NWZ3); test: KINOMEscan; type: binding
T21 construct: purchased DiscoverX (KINOMEscan panel)

hTTK = molecular target: T22, hTTK (Homo sapiens, UniProt P33981); test: KINOMEscan; type: binding
T22 construct: purchased DiscoverX

hLTK = molecular target: T23, hLTK (Homo sapiens, UniProt P29376); test: KINOMEscan; type: binding
T23 construct: purchased DiscoverX (KINOMEscan platform)

hCAMK1D = molecular target: T24, hCAMK1D (Homo sapiens, UniProt Q8IU85); test: KINOMEscan; type: binding
T24 construct: purchased DiscoverX
T24 sequence (Q8IU85 whole entry): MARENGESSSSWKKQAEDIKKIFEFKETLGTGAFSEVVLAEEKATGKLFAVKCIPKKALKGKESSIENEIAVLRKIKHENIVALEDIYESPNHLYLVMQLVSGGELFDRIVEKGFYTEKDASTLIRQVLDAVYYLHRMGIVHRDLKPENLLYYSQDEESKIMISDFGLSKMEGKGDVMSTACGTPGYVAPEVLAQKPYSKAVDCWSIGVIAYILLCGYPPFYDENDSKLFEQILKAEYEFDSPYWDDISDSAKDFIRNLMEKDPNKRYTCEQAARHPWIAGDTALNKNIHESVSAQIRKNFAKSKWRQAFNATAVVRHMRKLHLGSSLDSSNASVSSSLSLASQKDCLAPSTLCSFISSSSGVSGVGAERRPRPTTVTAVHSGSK

hACVR2B = molecular target: T25, hACVR2B (Homo sapiens, UniProt Q13705); test: KINOMEscan; type: binding
T25 construct: purchased DiscoverX (KINOMEscan platform)

hSYK = molecular target: T26, hSYK (Homo sapiens, UniProt P43405); test: KINOMEscan; type: binding
T26 construct: purchased DiscoverX (KINOMEscan platform)

hEPHA2 = molecular target: T27, hEPHA2 (Homo sapiens, UniProt P29317); test: KINOMEscan; type: binding
T27 construct: purchased DiscoverX

hMAP4K4 = molecular target: T28, hMAP4K4 (Homo sapiens, UniProt O95819); test: KINOMEscan; type: binding
T28 construct: purchased DiscoverX (KINOMEscan platform)

hSTK16 = molecular target: T29, hSTK16 (Homo sapiens, UniProt O75716); test: KINOMEscan; type: binding
T29 construct: purchased DiscoverX (KINOMEscan platform)
T29 sequence (O75716 whole entry): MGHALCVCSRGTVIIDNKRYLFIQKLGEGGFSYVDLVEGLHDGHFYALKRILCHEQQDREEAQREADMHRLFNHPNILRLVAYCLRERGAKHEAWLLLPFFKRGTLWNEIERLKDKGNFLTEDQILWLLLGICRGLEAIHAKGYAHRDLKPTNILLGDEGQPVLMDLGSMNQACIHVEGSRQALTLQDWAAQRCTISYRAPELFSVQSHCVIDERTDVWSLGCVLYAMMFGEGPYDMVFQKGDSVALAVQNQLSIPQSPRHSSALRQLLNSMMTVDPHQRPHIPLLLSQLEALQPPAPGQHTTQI

hABL1(Q252H) = molecular target: T30, hABL1(Q252H) (Homo sapiens, UniProt P00519, Q252H); test: KINOMEscan; type: binding
T30 construct: purchased DiscoverX (KINOMEscan platform)

hERBB4 = molecular target: T31, hERBB4 (Homo sapiens, UniProt Q15303); test: KINOMEscan; type: binding
T31 construct: purchased DiscoverX

hSRC = molecular target: T32, hSRC (Homo sapiens, UniProt P12931); test: KINOMEscan; type: binding
T32 construct: purchased DiscoverX (KINOMEscan platform)

hLZK = molecular target: T33, hLZK (Homo sapiens, UniProt O43283); test: KINOMEscan; type: binding
T33 construct: purchased DiscoverX (KINOMEscan platform)

hRET(V804M) = molecular target: T34, hRET(V804M) (Homo sapiens, UniProt P07949, V804M); test: KINOMEscan; type: binding
T34 construct: purchased DiscoverX (KINOMEscan platform)

hYANK2 = molecular target: T35, hYANK2 (Homo sapiens, UniProt Q9NY57); test: KINOMEscan; type: binding
T35 construct: purchased DiscoverX
T35 sequence (Q9NY57 whole entry): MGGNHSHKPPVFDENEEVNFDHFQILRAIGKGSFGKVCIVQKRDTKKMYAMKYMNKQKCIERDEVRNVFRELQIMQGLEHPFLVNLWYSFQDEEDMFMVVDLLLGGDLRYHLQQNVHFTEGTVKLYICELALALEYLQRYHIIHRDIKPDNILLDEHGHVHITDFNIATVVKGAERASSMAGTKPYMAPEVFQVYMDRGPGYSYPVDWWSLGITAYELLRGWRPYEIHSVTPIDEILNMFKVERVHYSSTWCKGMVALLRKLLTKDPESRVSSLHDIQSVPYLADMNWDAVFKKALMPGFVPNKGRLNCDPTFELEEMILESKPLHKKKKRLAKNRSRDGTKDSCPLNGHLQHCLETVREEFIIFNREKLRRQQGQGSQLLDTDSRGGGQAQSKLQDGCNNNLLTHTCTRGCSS

hERK4 = molecular target: T36, hERK4 (Homo sapiens, UniProt P31152); test: KINOMEscan; type: binding
T36 construct: purchased DiscoverX
T36 sequence (P31152 whole entry): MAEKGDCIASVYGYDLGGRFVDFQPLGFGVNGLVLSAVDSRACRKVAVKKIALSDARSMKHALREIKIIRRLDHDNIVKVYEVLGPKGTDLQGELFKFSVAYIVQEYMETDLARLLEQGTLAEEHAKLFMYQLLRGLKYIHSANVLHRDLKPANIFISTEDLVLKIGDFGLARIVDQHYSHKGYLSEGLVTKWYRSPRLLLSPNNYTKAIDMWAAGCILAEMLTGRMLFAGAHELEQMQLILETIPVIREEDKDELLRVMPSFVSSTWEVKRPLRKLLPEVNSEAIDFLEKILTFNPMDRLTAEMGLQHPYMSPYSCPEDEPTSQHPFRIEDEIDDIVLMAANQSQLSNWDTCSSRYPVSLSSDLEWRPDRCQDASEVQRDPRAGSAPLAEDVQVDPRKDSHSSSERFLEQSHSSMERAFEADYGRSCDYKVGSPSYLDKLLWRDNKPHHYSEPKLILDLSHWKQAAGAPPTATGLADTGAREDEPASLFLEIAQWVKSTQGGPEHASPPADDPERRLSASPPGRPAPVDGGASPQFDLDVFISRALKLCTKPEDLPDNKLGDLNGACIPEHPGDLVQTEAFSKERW

hAKT3 = molecular target: T37, hAKT3 (Homo sapiens, UniProt Q9Y243); test: KINOMEscan; type: binding
T37 construct: purchased DiscoverX

hMAPKAPK2 = molecular target: T38, hMAPKAPK2 (Homo sapiens, UniProt P49137); test: KINOMEscan; type: binding
T38 construct: purchased DiscoverX

[1] = molecular target: T39, hEGFR(L747-S752del, P753S) (Homo sapiens, UniProt P00533, DEL747-752/P753S); test: KINOMEscan; type: binding
T39 construct: purchased DiscoverX

hADRβ1 = hADRβ1 (Homo sapiens, UniProt P08588); test: cAMP Agonist (Eurofins-CEREP); details: @ 10 μM
hMARK2 = molecular target: T40, hMARK2 (Homo sapiens, UniProt Q7KZI7); test: KINOMEscan; type: binding
T40 construct: purchased DiscoverX
T40 sequence (Q7KZI7 whole entry): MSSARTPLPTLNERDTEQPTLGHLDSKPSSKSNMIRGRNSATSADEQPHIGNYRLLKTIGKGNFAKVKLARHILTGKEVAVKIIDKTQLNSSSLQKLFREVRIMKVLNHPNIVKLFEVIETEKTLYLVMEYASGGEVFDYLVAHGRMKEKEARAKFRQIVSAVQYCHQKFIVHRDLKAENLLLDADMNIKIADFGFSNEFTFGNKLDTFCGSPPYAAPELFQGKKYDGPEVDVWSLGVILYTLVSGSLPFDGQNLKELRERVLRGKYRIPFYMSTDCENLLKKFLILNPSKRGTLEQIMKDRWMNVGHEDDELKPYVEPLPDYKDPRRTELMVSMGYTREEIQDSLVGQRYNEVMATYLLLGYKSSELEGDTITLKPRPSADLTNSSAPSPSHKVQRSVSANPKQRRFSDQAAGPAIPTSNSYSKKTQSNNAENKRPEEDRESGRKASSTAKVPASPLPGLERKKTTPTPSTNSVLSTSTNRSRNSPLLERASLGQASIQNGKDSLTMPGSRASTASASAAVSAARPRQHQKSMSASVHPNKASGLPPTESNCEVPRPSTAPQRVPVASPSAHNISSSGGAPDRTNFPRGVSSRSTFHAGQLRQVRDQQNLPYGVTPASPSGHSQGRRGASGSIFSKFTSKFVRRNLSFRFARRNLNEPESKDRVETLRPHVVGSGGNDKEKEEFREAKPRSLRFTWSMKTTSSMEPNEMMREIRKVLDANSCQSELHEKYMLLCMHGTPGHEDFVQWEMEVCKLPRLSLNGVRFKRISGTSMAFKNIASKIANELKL

hHUNK = molecular target: T41, hHUNK (Homo sapiens, UniProt P57058); test: KINOMEscan; type: binding
T41 construct: purchased DiscoverX (KINOMEscan panel)

T2 sequence (P68400 whole entry): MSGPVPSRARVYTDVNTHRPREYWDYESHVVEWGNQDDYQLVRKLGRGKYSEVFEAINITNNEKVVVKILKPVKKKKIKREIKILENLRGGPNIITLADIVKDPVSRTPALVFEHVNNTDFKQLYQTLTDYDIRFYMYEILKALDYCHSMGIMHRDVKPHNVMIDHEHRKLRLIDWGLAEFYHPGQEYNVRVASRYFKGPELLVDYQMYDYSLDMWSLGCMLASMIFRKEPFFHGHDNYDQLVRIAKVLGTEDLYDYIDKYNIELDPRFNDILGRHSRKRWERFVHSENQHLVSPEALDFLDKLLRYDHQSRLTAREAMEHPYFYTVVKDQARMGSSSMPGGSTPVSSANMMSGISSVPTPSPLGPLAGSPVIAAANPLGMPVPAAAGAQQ

Which IC50 (hABL1(pT315I)) does the source give for Cc1cn(CCN2CCN(c3ccccc3-c3cc(C#N)cc(C(=O)NCCCN4CCCC4)c3)CC2)c2ccccc12 [LLY-507, 3-cyano-5-{2-[4-[2-(3-methylindol-1-yl)ethyl]piperazin-1-yl]-phenyl}-N-[(3-pyrrolidin-1-yl)propyl]benzamide] here?
The IC50 was greater than 20 µM.

What about the IC50 (hCSNK2A1) of the same molecule?
The IC50 was greater than 20 µM.

And the “% inhibition @ 10 μM” value (CYP2C9)?
Its value is 34.2%.

And the IC50 (hIKK-beta)?
The IC50 was greater than 20 µM.

And the IC50 (hSNRK)?
The IC50 was greater than 20 µM.

And the IC50 (hERBB2)?
Its IC50 is greater than 20 µM.

And the IC50 (hABL1(F317I))?
Its IC50 is greater than 20 µM.

What about the IC50 (hRIPK5) of the same molecule?
Its IC50 is greater than 20 µM.

What about the IC50 (hHASPIN) of the same molecule?
Its IC50 is greater than 20 µM.

What about the IC50 (hPRP4) of the same molecule?
Its IC50 is greater than 20 µM.

And the IC50 (hRIPK1)?
The IC50 was greater than 20 µM.

What about the IC50 (hIGF1R) of the same molecule?
Its IC50 is greater than 20 µM.

And the IC50 (hEPHA6)?
Its IC50 is greater than 20 µM.

And the IC50 (hAURKB)?
Its IC50 is greater than 20 µM.

And the IC50 (hLIMK2)?
The IC50 was greater than 20 µM.

What about the IC50 (hMARK1) of the same molecule?
The IC50 was greater than 20 µM.

What about the IC50 (hPIP5K1A) of the same molecule?
Its IC50 is 16.4 µM.

And the IC50 (hRARγ)?
Its IC50 is greater than 10 µM.

And the IC50 (hCSNK1A1)?
Its IC50 is greater than 20 µM.

And the IC50 (hABL1(pF317I))?
The IC50 was greater than 20 µM.

What about the IC50 (hIRAK4) of the same molecule?
Its IC50 is greater than 20 µM.

What about the IC50 (hTTK) of the same molecule?
Its IC50 is greater than 20 µM.

And the IC50 (hLTK)?
The IC50 was greater than 20 µM.

And the IC50 (hCAMK1D)?
The IC50 was greater than 20 µM.

What about the IC50 (hACVR2B) of the same molecule?
The IC50 was greater than 20 µM.

What about the IC50 (hSYK) of the same molecule?
Its IC50 is greater than 20 µM.

What about the IC50 (hEPHA2) of the same molecule?
Its IC50 is greater than 20 µM.

What about the IC50 (hMAP4K4) of the same molecule?
The IC50 was greater than 20 µM.

And the IC50 (hSTK16)?
Its IC50 is greater than 20 µM.

What about the IC50 (hABL1(Q252H)) of the same molecule?
Its IC50 is greater than 20 µM.

And the IC50 (hERBB4)?
The IC50 was greater than 20 µM.

What about the IC50 (hSRC) of the same molecule?
Its IC50 is greater than 20 µM.

What about the IC50 (hLZK) of the same molecule?
The IC50 was greater than 20 µM.

And the IC50 (hRET(V804M))?
The IC50 was greater than 20 µM.

And the IC50 (hYANK2)?
The IC50 was greater than 20 µM.

What about the IC50 (hERK4) of the same molecule?
The IC50 was greater than 20 µM.

What about the IC50 (hAKT3) of the same molecule?
Its IC50 is greater than 20 µM.

And the IC50 (hMAPKAPK2)?
Its IC50 is greater than 20 µM.

And the IC50 [1]?
The IC50 was greater than 20 µM.

What about the “% Effect, Stimulation” value (hADRβ1) of the same molecule?
Its value is 52.7%.

What about the IC50 (hMARK2) of the same molecule?
Its IC50 is greater than 20 µM.

And the IC50 (hHUNK)?
Its IC50 is greater than 20 µM.
